Assay results as given in ChEMBL document CHEMBL1154105, “Optimization of peptide-based inhibitors of prostate-specific antigen (PSA) as targeted imaging agents for prostate cancer” (Bioorg Med Chem, 2009).
pKi: −log10 of the molar value. Starred links: 1 amine or outer side, 2 acyl side, 3 side chain; linkers in the order of their positions; H or OH if unused. Non-standard residues stand in square brackets, D forms with d. Residues, ends and D or L forms follow the SMILES beside them. *: point of attachment. Ala(imidazol-2-yl) = N[C@@H](Cc1ncc[nH]1)C(=O)O; X2 = C[C@@H](C(=O)[*:2])N(c1ccc2ccccc2c1)[*:1]; Phe(4-Br) = N[C@@H](Cc1ccc(Br)cc1)C(=O)O; N(cHex)Ala = C[C@H](NC1CCCCC1)C(=O)O; Pro(3R-OH) = O=C(O)[C@H]1NCC[C@H]1O; hIle = CC[C@H](C)C[C@H](N)C(=O)O; Met(O) = CS(=O)CC[C@H](N)C(=O)O; boroLeu = CC(C)C[C@H](N*)B(O)O; NPhGly = O=C(O)CNc1ccccc1; Cbz = O=C(OCc1ccccc1)*; tBu = CC(C)(C)*

Tested on: not listed separately
Assay: Selectivity ratio of Ki for chymotrypsin to Ki for prostate-specific antigen
Conditions: Prostate gland

With `CC(C)C[C@H](NC(=O)[C@H](CC(C)C)NC(=O)[C@H](CCCCN)NC(=O)[C@H](CO)NC(=O)[C@H](CO)NC(=O)OCc1ccccc1)B(O)O` (Cbz-SSKL-boroLeu) the Ratio Ki was 60.

Molecular target: T1, Prostate-specific antigen (Homo sapiens, UniProt P07288);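 note: Fluorescence-based readout of substrate cleavage by prostate-specific antigen, used to gauge enzyme inhibition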
T1 sequence (P07288 whole entry): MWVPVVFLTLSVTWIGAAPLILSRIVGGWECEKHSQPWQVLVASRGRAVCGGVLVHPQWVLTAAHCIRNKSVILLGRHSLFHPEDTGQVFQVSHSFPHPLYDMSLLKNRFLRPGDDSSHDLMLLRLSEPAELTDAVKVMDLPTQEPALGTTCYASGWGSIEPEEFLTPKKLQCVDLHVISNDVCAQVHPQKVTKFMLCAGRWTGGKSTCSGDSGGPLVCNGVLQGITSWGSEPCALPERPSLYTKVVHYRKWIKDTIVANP
Assay: biochemical
Format: tissue-based, Prostate gland
Conditions: not given

`CC(C)C[C@@H](C=O)NC(=O)CN(C(=O)[C@H](CCCCN)NC(=O)[C@H](CO)NC(=O)[C@H](CO)NC(=O)OCc1ccccc1)c1ccccc1` (Cbz-SSK[NPhGly]L-aldehyde) and `CC(C)C[C@@H](C=O)NC(=O)CNC(=O)[C@H](CCCCN)NC(=O)[C@H](CO)NC(=O)[C@H](CO)NC(=O)OCc1ccccc1` (Cbz-SSKGL-aldehyde) cannot be ordered by pKi: under 4.30 for the first, under 3.00 for the second.

`CC(C)C[C@@H](C=O)NC(=O)[C@@H]1CCCN1C(=O)[C@H](CCCCN)NC(=O)[C@H](CO)NC(=O)[C@H](CO)NC(=O)OCc1ccccc1` (Cbz-SSKPL-aldehyde) and `CC(C)C[C@@H](C=O)NC(=O)[C@@H]1[C@H](O)CCN1C(=O)[C@H](CCCCN)NC(=O)[C@H](CO)NC(=O)[C@H](CO)NC(=O)OCc1ccccc1` (Cbz-SSK[Pro(3R-OH)]L-aldehyde) cannot be ordered by pKi: under 3.30 for the first, under 3.30 for the second.

`CC(C)C[C@@H](C=O)NC(=O)[C@@H](NC(=O)[C@H](CCCCN)NC(=O)[C@H](CO)NC(=O)[C@H](CO)NC(=O)OCc1ccccc1)C(C)C` (Cbz-SSKVL-aldehyde) and `CC(C)C[C@@H](C=O)NC(=O)[C@H](C)NC(=O)[C@H](CCCCN)NC(=O)[C@H](CO)NC(=O)[C@H](CO)NC(=O)OCc1ccccc1` (Cbz-SSKAL-aldehyde) cannot be ordered by pKi: under 4.30 for the first, under 4.00 for the second.

Compared with `CC(C)C[C@@H](C=O)NC(=O)[C@H](CC(C)C)NC(=O)CNC(=O)[C@H](CO)NC(=O)[C@H](CO)NC(=O)OCc1ccccc1` (Cbz-SSGLL-aldehyde), `CC(C)C[C@@H](C=O)NC(=O)[C@H](CC(C)C)NC(=O)[C@@H](NC(=O)[C@H](CO)NC(=O)[C@H](CO)NC(=O)OCc1ccccc1)[C@@H](C)O` (Cbz-SSTLL-aldehyde) is higher in pKi: under 3.00 for the first, 4.36 for the second.

First: CC(C)C[C@@H](C=O)NC(=O)[C@H](Cc1ncc[nH]1)NC(=O)[C@H](CCCCN)NC(=O)[C@H](CO)NC(=O)[C@H](CO)NC(=O)OCc1ccccc1 (Cbz-SSK[Ala(imidazol-2-yl)]L-aldehyde)
Second: CC(C)C[C@@H](C=O)NC(=O)[C@H](CO)NC(=O)[C@H](CCCCN)NC(=O)[C@H](CO)NC(=O)[C@H](CO)NC(=O)OCc1ccccc1 (Cbz-SSKSL-aldehyde)
The pKi of the first is higher: 4.73 for the first, under 4.30 for the second. The first binds more tightly here.

First: CC(C)C[C@@H](C=O)NC(=O)[C@H](CC(C)C)NC(=O)[C@H](CCC(=O)O)NC(=O)[C@H](CO)NC(=O)[C@H](CO)NC(=O)OCc1ccccc1 (Cbz-SSELL-aldehyde)
Second: CC(C)C[C@@H](C=O)NC(=O)[C@H](CC(C)C)NC(=O)[C@H](CCC(N)=O)NC(=O)[C@H](CO)NC(=O)[C@H](CO)NC(=O)OCc1ccccc1 (Cbz-SSQLL-aldehyde)
The pKi of the first is lower: under 3.00 for the first, 5.41 for the second. The second binds more tightly here.

Compared with `CC(C)C[C@@H](C=O)NC(=O)[C@H](CC(C)C)NC(=O)[C@@H]1CCCN1C(=O)[C@H](CO)NC(=O)[C@H](CO)NC(=O)OCc1ccccc1` (Cbz-SSPLL-aldehyde), `CC(C)C[C@@H](C=O)NC(=O)[C@H](CC(C)C)NC(=O)[C@H](C)N(C(=O)[C@H](CO)NC(=O)[C@H](CO)NC(=O)OCc1ccccc1)C1CCCCC1` (Cbz-SS[N(cHex)Ala]LL-aldehyde) is higher in pKi: under 3.00 for the first, 4.88 for the second.

First: CC(C)C[C@@H](C=O)NC(=O)[C@H](CCC(N)=O)NC(=O)[C@H](CCCCN)NC(=O)[C@H](CO)NC(=O)[C@H](CO)NC(=O)OCc1ccccc1 (Cbz-SSKQL-aldehyde)
Second: CC(C)C[C@@H](C=O)NC(=O)[C@H](CC(=O)O)NC(=O)[C@H](CCCCN)NC(=O)[C@H](CO)NC(=O)[C@H](CO)NC(=O)OCc1ccccc1 (Cbz-SSKDL-aldehyde)
The pKi of the first is higher: 4.66 for the first, under 3.00 for the second. The first binds more tightly here.

Going from `CC[C@H](C)C[C@H](NC(=O)[C@H](CCCCN)NC(=O)[C@H](CO)NC(=O)[C@H](CO)NC(=O)OCc1ccccc1)C(=O)N[C@H](C=O)CC(C)C` (Cbz-SSK[hIle]L-aldehyde) to `CC(C)C[C@@H](C=O)NC(=O)[C@H](CSC(C)(C)C)NC(=O)[C@H](CCCCN)NC(=O)[C@H](CO)NC(=O)[C@H](CO)NC(=O)OCc1ccccc1` (Cbz-SSKC(tBu)L-aldehyde), the pKi falls from 4.43 to under 4.30. The first binds more tightly here.

First: CSCC[C@H](NC(=O)[C@H](CO)NC(=O)[C@H](CO)NC(=O)OCc1ccccc1)C(=O)N[C@@H](CC(C)C)C(=O)N[C@H](C=O)CC(C)C (Cbz-SSMLL-aldehyde)
Second: CC(C)C[C@@H](C=O)NC(=O)[C@H](CC(C)C)NC(=O)[C@H](CC[S+](C)[O-])NC(=O)[C@H](CO)NC(=O)[C@H](CO)NC(=O)OCc1ccccc1 (stereo partly specified) (Cbz-SS[Met(O)]LL-aldehyde)
The pKi of the first is 0.53 log units higher: 5.12 for the first, 4.59 for the second. The first binds more tightly here.

`CC(C)C[C@@H](C=O)NC(=O)[C@H](CCCCN)NC(=O)[C@H](CCCCN)NC(=O)[C@H](CO)NC(=O)[C@H](CO)NC(=O)OCc1ccccc1` (Cbz-SSKKL-aldehyde) and `CC(C)C[C@@H](C=O)NC(=O)[C@H](Cc1ccc(Br)cc1)NC(=O)[C@H](CCCCN)NC(=O)[C@H](CO)NC(=O)[C@H](CO)NC(=O)OCc1ccccc1` (Cbz-SSK[Phe(4-Br)]L-aldehyde) cannot be ordered by pKi: under 4.30 for the first, under 3.30 for the second.

`CC(C)C[C@@H](C=O)NC(=O)[C@H](C)N(C(=O)[C@H](CCCCN)NC(=O)[C@H](CO)NC(=O)[C@H](CO)NC(=O)OCc1ccccc1)c1ccc2ccccc2c1` (Cbz-SSK[X2]L-aldehyde) and `CC(C)C[C@@H](C=O)NC(=O)[C@H](C)N(C(=O)[C@H](CCCCN)NC(=O)[C@H](CO)NC(=O)[C@H](CO)NC(=O)OCc1ccccc1)C1CCCCC1` (Cbz-SSK[N(cHex)Ala]L-aldehyde) cannot be ordered by pKi: under 4.00 for the first, under 4.30 for the second.

Compound `CC(C)C[C@@H](C=O)NC(=O)[C@H](CC(C)C)NC(=O)[C@H](CC(N)=O)NC(=O)[C@H](CO)NC(=O)[C@H](CO)NC(=O)OCc1ccccc1` (Cbz-SSNLL-aldehyde) has a pKi of 4.74.
